Data set [1] has as its system IDUA and p53 genes. Particulars: cited from earlier work.
The test system of data set [2] is UGAC stop codon. Kind of data set: Stop codon readthrough assay. It is filed as cell-based. Particulars: 200 ug/ml, 24 hours.
Procedure: The cells were exposed to 200 ug/ml of each compound for 24 hours.
The method used to assess readthrough is as follows.
In order to determine the optimal concentrations of the aminoglycosides to use in the mammalian translation system, increasing amounts of each aminoglycoside were added to a rabbit reticulocyte translation system while expressing the QX(N) (UGAC) construct. The effect of aminoglycoside addition on total protein synthesis was monitored by comparing the total amount of proteins synthesized in the presence and absence of various aminoglycosides. A range of aminoglycoside concentrations was then determined that allowed a maximal amount of termination suppression without inhibiting total protein synthesis more than two- to threefold. In vitro translation reactions were carried out using the TNT coupled transcription/translation system (Promega). […] The gel was dried and subjected to PhosphorImager analysis in order to quantitate the amount of truncated and full-length protein species. The percentage of readthrough was then calculated as the amount of full-length protein/(truncated+full-length species)×100.
Data set [3] has as its system COS7 cells. Briefly: Cytotoxicity (cell death, % inviability) in COS7 cells. Type of data set: cell-based. On the procedure: Gentamicin and various congeners isolated and purified by, for example, the HPLC techniques outlined in Sandoval et al. were tested to assess their level of cytotoxicity. Briefly, COS7 cells were grown in the presence of either 200 or 500 ug/ml of one of the following test compounds, the C1 or the C2 congeners of gentamicin or native gentamicin. As a control still another batch of COS7 cells were grown in absence of all of the test compounds.
Referring now to FIG. 6 cell inviability was determined for cells exposed to no test compound, native gentamicin or a congener of gentamicin; in this graph a high value indicate […]. Cell death (% inviability) was determined for each of the six conditions.

Data set [4] relates to viable cells. Kind of data set: Cytotoxicity by dye exclusion assay (FIG. 7). Type of data set: cell-based. Particulars: viable cells treated vs untreated. The protocol: FIG. 7 also includes information on the cell toxicity. Cytotoxicity was measured by comparing the number of viable cells in treated and untreated samples using a dye exclusion assay of the compounds tested. […] (the […]) was the most toxic compound tested 4.4 fold more toxic than the control (no added aminoglycoside) followed by […] (native gentamicin) 1.7 times more toxic than the control; the least toxic compound tested was […]

Data set [5] relates to dystrophin. Kind of data set: Dystrophin immunohistochemistry in mdx mice after i.m. treatment. The conditions noted are these: about 1 or 5 mg/day, 7 days. Type of data set: in vivo. On the procedure: Eight mdx mice are treated with I.M. injections of either gentamicin or the […] of gentamicin (C2 in Formula I) four of the mice receive either gentamicin or the […] at a dose of about 1 mg/day and the other four mice receive the same compounds at a dose of about 5 mg/day. The animals are dosed over a period of 7 days. […] All mice are sacrificed, their skeletal muscle and their hearts are frozen and cryostat sectioned. The presence of dystrophin in these sections is investigated by immunohistochemistry. Strong dystrophin immunostaining is observed in the normal skeletal and heart muscles. In the untreated mdx muscles, dystrophin immunostaining is observed only in a few revertant fibers. […] The dystrophin staining is less intense in the muscles of mice treated with […]. Therefore a dose of about 8 to 40 mg per Kg of body weight per day of either gentamicin or the […] of gentamicin successfully suppresses the premature stop codon by inserting an amino acid, and continuing translation of […] nucleic acids. Subcutaneous and intravenous administration will provide the same results. The duration of the course of treatment may vary. […]

Data set [6] in a line: Nephrotoxicity in rats: serum creatinine after six daily doses. On the procedure:
(§1) Differences in necrosis, apoptosis, and cell density among the various congeners on the human and porcine cell lines were determined using an ANOVA function with Systat 11 software (Systat Software, Point Richmond, Calif.). […] All reported values are mean±SEM.
We specifically used six daily doses for these studies to allow additional time for the C2 component to induce injury, because it is widely known that serum creatinine rises early in this model when native gentamicin is used.

Data set [7] has as its system LLC-PK1 proximal tubule cells. The conditions noted are these: results provided in Sandoval et al.; cited from earlier work.
The test system of data set [8] is multi-drug resistant form of Klebsiella pneumoniae. Kind of data set: Bactericidal properties against multi-drug resistant Klebsiella pneumoniae. It is filed as cell-based. On the procedure:
(§2) Referring now to Formula 1 and FIG. 1, 4 congeners can be isolated and purified from native gentamicin. Methods for isolating and purifying congeners include the following method. Briefly, separation of native gentamicin was carried out using a C18 column (250×4.60 mm) and the chromatograms was developed using a Waters 600e HPLC pump (Milford, Mass.). A gradient of 100% of a 0.1% (vol/vol) mixture of tri-fluoro-acetic acid in acetonitrile was used to develop the chronogram. […] There was no overlap between adjacent peaks. For all studies, the same lot of gentamicin was used. This ensured that the results obtained were independent of potential alteration in the ratio of gentamicin components. […] For additional discussion of this methodology please see, for example, Sandoval, et al.

The subject of data set [9] is Gram-positive and multi-drug-resistant Gram-negative bacteria. The conditions noted are these: Sandoval et al.; cited from earlier work.
Data set [10] deals with proximal convoluted tubules. Kind of data set: Kidney morphology and histology in rats (H&E, PAS, modified Jablonski score, gentamicin immunofluorescence). It is filed as in vivo, Sprague-Dawley rats. Particulars: six doses. The protocol:
Morphologic evaluation of injury caused by gentamicin and its congeners was assessed by grading the extent of necrosis of the proximal convoluted tubules. Injury scores were assigned on the basis of the predominant pattern present. For indirect immunofluorescence, 100 μm-thick sections were cut on a vibratome and stained with the monoclonal anti-gentamicin antibody (Biodesign International, Saco, Me.) and a fluorescein-conjugated secondary antibody (Jackson Immunoresearch, West Grove, Pa.) and lightly counterstained with Alexa 647 phalloidin (Molecular Probes) to localize filamentous actin for visualization using confocal microscopy.
Histological sections were viewed with a Wide field Nikon microscope with an attached color CCD camera (Nikon, Melville, N.Y.). Fluorescence images were acquired using a Bio-Rad MRC 1024 confocal microscope (Bio-Rad, Hercules, Calif.) on a Nikon platform (The Fryer Co., Huntley, Ill.). Co-localization studies with Texas Red dextran, FITC-Helixpontatia, and gentamicin were conducted on a Zeiss 510 confocal microscope with images illuminated and acquired sequentially to eliminate bleed-over emissions from the different fluorescence emission spectra.
Again, these studies were conducted after 7 days of exposure, or six doses of gentamicin. This was to ensure that we would see any delayed nephrotoxicity from the […]. These studies occurred at a time when the native gentamicin-treated animals were recovering, as evidenced by a reduction in serum creatinine levels in these animals. Therefore, these studies likely underestimate the actual histological damage that occurred early on in animals treated with native gentamicin. […] In addition, large perinuclear vacuoles (FIG. 3 B, arrowheads) could be seen in the renal corticol area. […] Here, proximal tubules from native gentamicin treated rats contained cast material and shed cells in the lumen (thick arrow). In addition, many of the proximal table cells contained large vacuoles that localized around the nucleus (FIG. 3 B, arrowheads).
Referring now to FIG. 3 D-E, thin histological sections also were stained with PAS to localize the glycocalyx that was associated with the brush border membrane of proximal tubules. […]
Referring now to FIG. 3 G-H, when tissues from rats that were exposed to the native commercial gentamicin compound or the […] of gentamicin were processed for indirect immunofluorescence localization of gentamicin, a difference in the intracellular accumulation and distribution emerged. […] Tissue sections from rats that were treated with normal saline alone and processed identically for immunofluorescence localization produced no fluorescence associated with gentamicin localization (data not shown).

The subject of data set [11] is Bacillus subtilus. Briefly: Bactericidal properties against Bacillus subtilus. Type of data set: cell-based. The protocol: as §2
Data set [12] concerns LLC-PK1 proximal tubule cells. The protocol:
as §1
The nuclear dye propidium iodide is cell impermeant and labels only necrotic cells, characterized by permeable cell membranes; co-localization of the two dyes gives a reddish-pink color. […] Values are means±SEM. Bar=approximately 10 microns.
The nuclear dyes propidium iodide and Hoechst 33342 were used as markers for necrosis and apoptosis, respectively.

Data set [13] has as its system LLC-PK1 cells. Kind of data set: Long-term (24 h) exposure: lysosome and Golgi complex localization in LLC-PK1 cells. Particulars: 24 h of continuous exposure.
Procedure: During this period of exposure to native gentamicin or the congeners, lysosomes were labeled by adding a 10,000 molecular weight rhodamine dextran to the culture medium (0.5 mg/ml; Molecular Probes). The cells then were fixed and stained for indirect immunofluorescence and visualized via confocal microscopy. Briefly, the Golgi complex was localized with a fluorescein-conjugated lectin from Helix pornotia at 5 μg/ml (EY Laboratories, San Mateo, Calif.) diluted in solution that contained the CY-5 conjugated secondary antibody that was used in the indirect immunolocalization of gentamicin. Visualization of nonlysosomal, cytosolic gentamicin was carried out as described previously, using a Tyramide Signal Amplification (Molecular Probes).
In order to study long-term differences in the intracellular distribution of gentamicin, we undertook additional study of gentamicin distribution in LLC-PK1 cells. […]
Where [14] appears, read: LLC-PK1 cells, 24 hours of exposure.

“Also recorded” adds a separate entry of the source. Bounds are passed on as bounds.

For the compound `NCC[C@H](O)C(=O)N[C@@H]1C[C@H](N)[C@@H](O[C@H]2O[C@H](CN)[C@@H](O)[C@H](O)[C@H]2O)[C@H](O)[C@H]1O[C@H]1O[C@H](CO)[C@@H](O)[C@H](N)[C@H]1O` [Amikacin], the “premature stop codons overcome” value in data set [1] is given as “can be overcome”.
Consider `NC[C@H]1O[C@H](O[C@H]2[C@H](O)[C@@H](O[C@H]3O[C@H](CO)[C@@H](O)[C@H](N)[C@H]3O)[C@H](N)C[C@@H]2N)[C@H](N)C[C@@H]1O` [Tobramicin], for which, in data set [1], the “premature stop codons overcome” value is on record as “not”.
Take gentamicin C1 [reference compound]: in data set [2], the “readthrough of the UGAC stop codon” value is listed as “minimal readthrough”. The “toxicity ranking (cell death, % inviability)” value in [3] (200 or 500 ug/ml) is on record as “greatest toxicity”. Further, the “toxicity relative to control (no added aminoglycoside)” value in [4] is 4.4 fold.
On to gentamicin C2, for which the “dystrophin immunostaining in skeletal and heart muscle” value in [5] was “detected by immunohistochemistry on all muscle fibers and all heart muscle cells”. In data set [6] (100 mg/kg per day intraperitoneally, six daily doses), the “change in serum creatinine (in words)” value is given as “no elevation in serum creatinine”. The compound also displayed a serum creatinine in data set [6] (100 mg/kg per day intraperitoneally, six daily doses, up to 24 hours after the last injection) not above 0.2 mg/dL. The “functional and pathologic changes characteristic of gentamicin nephrotoxicity” value in data set [6] (animal studies) is listed as “failed to induce”. The “readthrough of the UGAC stop codon” value in data set [2] is reported as “intermediate effect on readthrough”. Moreover, the “toxicity in cell culture” value in data set [7] is “nontoxic”. For the same compound, the bactericidal properties result in data set [8] is listed as “excellent bactericidal properties”. Moreover, the “bactericidal potency compared with native gentamicin and other congeners” value in [9] was “as potent a bactericide”. In addition, the “toxicity (cell death, % inviability)” value in data set [3] (200 ug/ml) is given as “virtually no toxicity”. The “toxicity (cell death, % inviability)” value in data set [3] (500 ug/ml) is listed as “only very minimal toxicity”. In [10] (rat cortex, compared with native gentamicin), the “renal injury, modified Jablonski score” value is reported as “significantly reduced; also recorded: significantly lower”. For the same compound, in data set [10] (rats, 7 days of exposure), the “kidney morphology, H&E-stained sections” value is listed as “normal morphology”; the “lysosomal morphology in proximal tubule cells, indirect immunofluorescence” value is “normal lysosomal morphology”; the “proximal tubular brush border, PAS staining” value was “more abundant and enriched PAS staining”. The bactericidal properties entry in data set [11] is “excellent bactericidal properties”. For the same compound, in data set [12] (setting [14]), the “cell density, % of untreated (control) values” was found to be 80.3±5.7% and the “percentage of cell death (toxicity index)” value is reported as 3.1±1.3%. The “cytotoxicity in cell culture (in words)” value in data set [12] (cultured cells, 24 hours of continual exposure) is listed as “minimal cytotoxicity; also recorded: markedly reduced toxicity; also recorded: minimal evidence of toxicity”. Besides, in [13], the “Golgi complex staining with Helix pomatia lectin” value is reported as “faint” and the “lysosome appearance (Texas Red dextran)” value was “small, discrete vesicles found throughout the cellular cytosol”. The “toxicity relative to control (no added aminoglycoside)” value in data set [4] is recorded as “no more toxic than the control”.

(Values after patent publication US9775854B2 (Indiana University Research and Technology Corp., priority 2006, dated 2017).)
